Test results from patent US5750530A, “Pharmaceutical diketopiperazine compounds” (Xenova Limited, priority 1994, dated 1998).
Counter-ions that a name gives are not always drawn.

Biological target: PAI-1 (Homo sapiens, UniProt P05121)
Test: biochemical
Assay type: biochemical
Conditions: for IC50: PAI chromogenic substrate assay
In short: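 Compound preincubated with PAI-1 before addition to a tPA system; residual tPA converts plasminogen to plasmin, which cleaves chromogenic substrate S2251. Released p-nitroaniline read at 405 nm; values given as % inhibition at set concentrations or IC50.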

Sequence of PAI-1 (P05121 24-402): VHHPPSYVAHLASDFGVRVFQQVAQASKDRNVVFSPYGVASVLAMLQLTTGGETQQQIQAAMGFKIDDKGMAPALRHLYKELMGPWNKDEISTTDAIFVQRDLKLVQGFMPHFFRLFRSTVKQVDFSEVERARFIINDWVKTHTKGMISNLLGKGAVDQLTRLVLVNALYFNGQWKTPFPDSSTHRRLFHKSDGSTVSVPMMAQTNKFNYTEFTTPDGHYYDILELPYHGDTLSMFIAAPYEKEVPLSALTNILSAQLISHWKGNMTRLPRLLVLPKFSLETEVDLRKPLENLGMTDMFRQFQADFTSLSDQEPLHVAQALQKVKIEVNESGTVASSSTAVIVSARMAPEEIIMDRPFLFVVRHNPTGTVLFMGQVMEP

| SMILES | % Inhibition (5 μm) [%] | % Inhibition (20 μm) [%] | IC50 [µM] |
| --- | --- | --- | --- |
| COC(=O)c1ccc(/C=c2\[nH]c(=O)/c(=C/c3ccc(SCCN(C)C)s3)[nH]c2=O)cc1 [Compound 5477.HCl, (3Z,6Z)-3-(5-(2-Dimethylaminoethylthio)-2-thienyl)methylene-6-(4-methoxycarbonylbenzylidene)-2,5-piperazinedione] | 19 | 69 | 15.4 |
| COC(=O)c1ccc(/C=c2\[nH]c(=O)/c(=C/c3ccc(SCCN(C)C)cc3)[nH]c2=O)cc1 [Compound 5478.HCl, (3Z,6Z)-3-(4-(2-Dimethylaminoethylthio)benzylidene)-6-(4-methoxycarbonylbenzylidene)-2,5-piperazinedione] | 3 | 60 | 16.9 |
| COc1ccc(/C=c2\[nH]c(=O)/c(=C/c3ccc(SCCN(C)C)cc3)[nH]c2=O)cc1 [Compound 5479, (3Z,6Z)-3-(4-(2-Dimethylaminoethylthio)benzylidene)-6-(4-methoxybenzylidene)-2,5-piperazinedione] | 66 | 70 | 4.3 |
| COc1ccc(/C=c2\[nH]c(=O)/c(=C/c3ccc(SCCN(C)C)cc3)[nH]c2=O)cc1 [Compound 5479.HCl, (3Z,6Z)-3-(4-(2-Dimethylaminoethylthio)benzylidene)-6-(4-methoxybenzylidene)-2,5-piperazinedione] | 62 | 75 | 4.8 |
| CN(C)CCSc1ccc(/C=c2\[nH]c(=O)/c(=C/c3ccc(Br)cc3)[nH]c2=O)cc1 [Compound 5480, (3Z,6Z)-3-(4-Bromobenzylidene)-6-(4-(2-dimethylaminoethylthio)benzylidene)-2,5-piperazinedione] | 53 | 74 | 5.2 |
| CN(C)CCSc1ccc(/C=c2\[nH]c(=O)/c(=C/c3ccc(Br)cc3)[nH]c2=O)cc1 [Compound 5480.HCl, (3Z,6Z)-3-(4-Bromobenzylidene)-6-(4-(2-dimethylaminoethylthio)benzylidene)-2,5-piperazinedione] | 52 | 76 |  |
| CN(C)CCSc1ccc(/C=c2\[nH]c(=O)/c(=C/c3ccc(OCc4ccccc4)cc3)[nH]c2=O)cc1 [Compound 5481, (3Z,6Z)-3-(4-Benzyloxybenzylidene)-6-(4-(2-dimethylaminoethylthio)benzylidene)-2,5-piperazinedione] | 9 | 56 | 20 |
| CN(C)CCSc1ccc(/C=c2\[nH]c(=O)/c(=C/c3ccc(OCc4ccccc4)cc3)[nH]c2=O)cc1 [Compound 5481.HCl, (3Z,6Z)-3-(4-Benzyloxybenzylidene)-6-(4-(2-dimethylaminoethylthio)benzylidene)-2,5-piperazinedione] | 10 | 55 |  |
| CN(C)CCSc1ccc(/C=c2\[nH]c(=O)/c(=C/c3ccc(OCc4ccccc4)cc3)[nH]c2=O)s1 [Compound 5482, (3Z,6Z)-6-(4-Benzyloxybenzylidene)-3-(5-(2-dimethylaminoethylthio)-2-thienyl)methylene-2,5-piperazinedione] | 12 | 50 | 20 |
| CN(C)CCSc1ccc(/C=c2\[nH]c(=O)/c(=C/c3ccc(OCc4ccccc4)cc3)[nH]c2=O)s1 [Compound 5482.HCl, (3Z,6Z)-6-(4-Benzyloxybenzylidene)-3-(5-(2-dimethylaminoethylthio)-2-thienyl)methylene-2,5-piperazinedione] | 13 | 59 |  |
| CN(C)CCSc1ccc(/C=c2\[nH]c(=O)/c(=C/c3cccc(OCc4ccccc4)c3)[nH]c2=O)cc1 [Compound 5486, (3Z,6Z)-3-(3-Benzyloxybenzylidene)-6-(4-(2-dimethylaminoethylthio)benzylidene)-2,5-piperazinedione] | 13 | 55 | 20 |
| CN(C)CCSc1ccc(/C=c2\[nH]c(=O)/c(=C/c3cccc(OCc4ccccc4)c3)[nH]c2=O)cc1 [Compound 5486.HCl, (3Z,6Z)-3-(3-Benzyloxybenzylidene)-6-(4-(2-dimethylaminoethylthio)benzylidene)-2,5-piperazinedione] | 4 | 49 |  |
| CN(C)CCSc1ccc(/C=c2\[nH]c(=O)/c(=C/c3cccc(OCc4ccccc4)c3)[nH]c2=O)s1 [Compound 5487, (3Z,6Z)-6-(3-Benzyloxybenzylidene)-3-(5-(2-dimethylaminoethylthio)-2-thienyl)methylene-2,5-piperazinedione] | 15 | 60 | 8.6 |
| CN(C)CCSc1ccc(/C=c2\[nH]c(=O)/c(=C/c3cccc(OCc4ccccc4)c3)[nH]c2=O)s1 [Compound 5487.HCl, (3Z,6Z)-6-(3-Benzyloxybenzylidene)-3-(5-(2-dimethylaminoethylthio)-2-thienyl)methylene-2,5-piperazinedione] | 7 | 54 | 7.2 |
| COc1cc(/C=c2\[nH]c(=O)/c(=C/c3ccc(SCCN(C)C)s3)[nH]c2=O)ccc1OCc1ccc([N+](=O)[O-])cc1 [Compound 5488, (3Z,6Z)-3-(5-(2-Dimethylaminoethylthio)-2-thienyl)methylene-6-(3-methoxy-4-(4-nitrobenzyloxy)benzylidene)-2,5-piperazinedione] | 14 | 64 | 8.2 |

Next, values leading:

| % Inhibition (5 μm) [%] | % Inhibition (20 μm) [%] | IC50 [µM] | SMILES |
| --- | --- | --- | --- |
| 15 | 60 | 7.6 | COc1cc(/C=c2\[nH]c(=O)/c(=C/c3ccc(SCCN(C)C)s3)[nH]c2=O)ccc1OCc1ccc([N+](=O)[O-])cc1 [Compound 5488.HCl, (3Z,6Z)-3-(5-(2-Dimethylaminoethylthio)-2-thienyl)methylene-6-(3-methoxy-4-(4-nitrobenzyloxy)benzylidene)-2,5-piperazinedione] |
| 6 | 56 | 13.6 | CN(C)CCSc1ccc(/C=c2\[nH]c(=O)/c(=C/c3ccc(Br)cc3)[nH]c2=O)s1 [Compound 5489, (3Z,6Z)-6-(4-Bromobenzylidene)-3-(5-(2-dimethylaminoethylthio)-2-thienyl)methylene-2,5-piperazinedione] |
| 9 | 55 | 12.6 | CN(C)CCSc1ccc(/C=c2\[nH]c(=O)/c(=C/c3ccc(Br)cc3)[nH]c2=O)s1 [Compound 5489.HCl, (3Z,6Z)-6-(4-Bromobenzylidene)-3-(5-(2-dimethylaminoethylthio)-2-thienyl)methylene-2,5-piperazinedione] |
| 6 | 48 | 20 | COc1cc(/C=c2\[nH]c(=O)/c(=C/c3ccc(SCCN(C)C)cc3)[nH]c2=O)ccc1OCc1ccc([N+](=O)[O-])cc1 [Compound 5490, (3Z,6Z)-6-(4-(2-Dimethylaminoethylthio)benzylidene)-3-(3-methoxy-4-(4-nitrobenzyloxy)benzylidene)-2,5-piperazinedione] |
| 12 | 66 | 10.8 | COc1cc(/C=c2\[nH]c(=O)/c(=C/c3ccc(SCCN(C)C)cc3)[nH]c2=O)ccc1OCc1ccc([N+](=O)[O-])cc1 [Compound 5490.HCl, (3Z,6Z)-6-(4-(2-Dimethylaminoethylthio)benzylidene)-3-(3-methoxy-4-(4-nitrobenzyloxy)benzylidene)-2,5-piperazinedione] |
| 0 | 65 | 14.2 | CN(C)CCSc1ccc(/C=c2\[nH]c(=O)/c(=C/c3ccc4c(c3)OCO4)[nH]c2=O)cc1 [Compound 5491, (3Z,6Z)-6-(4-(2-Dimethylaminoethylthio)benzylidene)-3-(3,4-methylenedioxybenzylidene)-2,5-piperazinedione] |
| 0 | 47 | 20 | CN(C)CCSc1ccc(/C=c2\[nH]c(=O)/c(=C/c3ccc4c(c3)OCO4)[nH]c2=O)cc1 [Compound 5491.HCl, (3Z,6Z)-6-(4-(2-Dimethylaminoethylthio)benzylidene)-3-(3,4-methylenedioxybenzylidene)-2,5-piperazinedione] |
| 17 | 72 | 11 | CN(C)CCSc1ccc(/C=c2\[nH]c(=O)/c(=C/c3cn(C)c4ccccc34)[nH]c2=O)cc1 [Compound 5497, (3Z,6Z)-6-(4-(2-Dimethylaminoethylthio)benzylidene)-3-(1-methyl-3-indolyl)methylene-2,5-piperazinedione] |
| 12 | 59 | 11.5 | CN(C)CCSc1ccc(/C=c2\[nH]c(=O)/c(=C/c3cn(C)c4ccccc34)[nH]c2=O)cc1 [Compound 5497.HCl, (3Z,6Z)-6-(4-(2-Dimethylaminoethylthio)benzylidene)-3-(1-methyl-3-indolyl)methylene-2,5-piperazinedione] |
| 15 | 52 | 20 | CN(C)CCSc1ccc(/C=c2\[nH]c(=O)/c(=C/c3c4ccccc4cc4ccccc34)[nH]c2=O)s1 [Compound 5498, (3Z,6Z)-6-(9-Anthrylmethylene)-3-(5-(2-dimethylaminoethylthio)-2-thienyl)methylene-2,5-piperazinedione] |
| 19 | 71 | 11.5 | CN(C)CCSc1ccc(/C=c2\[nH]c(=O)/c(=C/c3c4ccccc4cc4ccccc34)[nH]c2=O)s1 [Compound 5498.HCl, (3Z,6Z)-6-(9-Anthrylmethylene)-3-(5-(2-dimethylaminoethylthio)-2-thienyl)methylene-2,5-piperazinedione] |
| 2 | 61 | 11.8 | COc1ccc2ccccc2c1/C=c1\[nH]c(=O)/c(=C/c2ccc(SCCN(C)C)s2)[nH]c1=O [Compound 5499, (3Z,6Z)-3-(5-(2-Dimethylaminoethylthio)-2-thienyl)methylene-6-(2-methoxy-1-naphthyl)methylene-2,5-piperazinedione] |
